Assay results as given in patent US9128079B2, “Methods of using lung or bronchial epithelial cells to identify bitter taste modulators” (The Coca-Cola Company, priority 2011, dated 2015).

Experiments:
[1] = tested on: 16HBE cells; experiment: GloSensor cAMP assay, inhibition of forskolin-stimulated cAMP production; assay type: cell-based, human; details: increasing concentrations, GloSensor luminescence, FIG. 3
Method: Also shown is that overexpression of the wildtype form of RGS21 blunts bitter signaling and increases cAMP levels. Inhibition of forskolin-stimulated cAMP production by treatment with indicated concentrations of denatonium-B was determined 24 hours post-transfection by detection of Promega's cAMP GloSensor-dependent luminescence. Twenty-four hours post-transfection, cells were re-plated on poly-D-lysine-treated, clear-bottom, white 384-well plates at a density of 15,000 cells/well. Forty-eight hours post-transfection, culture medium was aspirated and cells were washed once with assay medium (DMEM (without FBS or phenol), 15 mM HEPES pH 7.4) before being incubated for 2 hours with 20 ill/well of equilibration medium (assay medium with 4% GloSensor™ substrate (Promega; Madison, Wis.)). After two hours, 10 μl of 3× final concentration denatonium benzoate (diluted in 3 μM forskolin-containing assay medium) was added to each well and allowed to incubate for 10 minutes before GloSensor™ emission was read on a MicroBeta Plate Counter (PerkinElmer; Waltham, Mass.). Before plotting, luminescence counts were normalized to 100% maximal response for each condition to account for variability in GloSensor™ expression, transfection efficiency, and the exact number of cells per well.

[2] = tested on: 16HBE cells; experiment: FLIPR calcium flux assay, intracellular calcium release on tastant addition; assay type: cell-based, human; details: increasing concentrations of tastant, calcium-sensitive dye, FIG. 2
Method: Calcium flux assays were performed as previously described in Strachan et al., “Ribosomal S6 kinase 2 directly phosphorylates the 5-hydroxytryptamine 2A (5-HT2A) serotonin receptor, thereby modulating 5-HT2A signaling,” J Biol Chem 284:5557-5573 (2009). 16-HBE cells were trypsinized, counted, and seeded onto clear-bottomed 96 well plates (Greiner Bio-One; Monroe, N.C.) pre-coated with poly-D-lysine, at a density of […]. After a 24 hour incubation, media was removed and replaced with a Ca^2+ assay buffer (20 mM HEPES, lx HBSS, 2.5 mM probenecid, and Ca^2+ assay dye, pH 7.4) (FLIPR® Calcium Assay Kit; Molecular Device Corp, Sunnyvale, Calif.). After a 1-hour incubation at 37° C., during which the cells were allowed to take up the dye, fluorescence responses of cells were measured with a FLIPRTETRA (Molecular Device Corp; Sunnyvale, Calif.) device upon the addition of variable concentrations of tastant, or vehicle, in the presence of assay buffer (20 mM HEPES, pH 7.4, 1× Hanks Balanced Salt [Invitrogen; Carlsbad, Calif.] and 2.5 mM probenecid). After data acquisition, a subsequent addition of […] was injected into each well, and fluorescence was measured again. […] The cells were loaded with fluorescent calcium-sensitive dye, treated with a variety of tastants, and monitored for intracellular calcium release with a FLIPR imaging device.

CC[N+](CC)(CC(=O)Nc1c(C)cccc1C)Cc1ccccc1 [denatonium-B, denatonium benzoate]
intracellular cyclic AMP concentration in 16HBE cells [1]: decreasing the concentration of intracellular cyclic AMP
intracellular calcium response of 16HBE cells [2]: increase in intracellular calcium
